Assay results as given in ChEMBL document CHEMBL2046288, “Cristatumins A-D, new indole alkaloids from the marine-derived endophytic fungus Eurotium cristatum EN-220” (2012).
≈ marks a conversion by molar mass, not a printed value. Values belong to the compound of their own block, whether it stands above or below them.

Assays:
Type in all cases: functional
Escherichia coli = test: Antibacterial activity against Escherichia coli by well diffusion method
Staphylococcus aureus [1] = test: Antibacterial activity against Staphylococcus aureus by well diffusion method
Artemia salina = test: Insecticidal activity against Artemia salina; conditions: read-out: LD50 (the source's name)
Staphylococcus aureus [2] = test: Antibacterial activity against Staphylococcus aureus assessed as inhibition zone at 100 ug/disc by well diffusion method; conditions: read-out: IZ

SMILES: O=C(N[C@H](CO)[C@H](O)c1ccc([N+](=O)[O-])cc1)C(Cl)Cl [CHLORAMPHENICOL]
MIC (Escherichia coli): 4 µg/mL (≈ 12.4 µM)
MIC (Staphylococcus aureus [1]): 4 µg/mL (≈ 12.4 µM)

MIC (Escherichia coli): 64 µg/mL (≈ 189 µM)
SMILES: C=CC(C)(C)c1[nH]c2ccccc2c1/C=C1\NC(=O)[C@H](CO)NC1=O [CRISTATUMIN A]

SMILES: C=CC(C)(C)c1[nH]c2c(CC=C(C)C)cccc2c1/C=C1\NC(=O)[C@H](C)NC1=O [VARIECOLORIN G]
LC50 (Artemia salina): 42.6 µg/mL (≈ 109 µM)

SMILES: C=CC(C)(C)c1[nH]c2ccccc2c1/C=C(\NC(=O)C(N)=O)C(=O)OC [CRISTATUMIN D]
zone of inhibition at 100 µg/disc (Staphylococcus aureus [2]): 8 mm

SMILES: C=CC(C)(C)c1[nH]c2ccc(CC=C(C)C)cc2c1/C=C1\NC(=O)[C@H](C)NC1=O [ISOECHINULIN A]
LC50 (Artemia salina): 16.9 µg/mL (≈ 43.2 µM)

MIC (Staphylococcus aureus [1]): 8 µg/mL (≈ 20.3 µM)
SMILES: C=CC(C)(C)c1[nH]c2ccc(CC=C(C)C)cc2c1C[C@@H]1NC(=O)[C@H](C)NC1=O [TARDIOXOPIPERAZINE A]

SMILES: C=CC(C)(C)c1[nH]c2c(CC=C(C)C)cc(CC=C(C)C)cc2c1C[C@@H]1NC(=O)[C@H](CO)NC1=O [CRISTATUMIN B]
LC50 (Artemia salina): 74.4 µg/mL (≈ 156 µM)

SMILES: C=CC(C)(C)c1[nH]c2c(CC=C(C)C)cc(CC=C(C)C)cc2c1C[C@@H]1NC(=O)[C@H](C)NC1=O [ECHINULIN]
zone of inhibition at 100 µg/disc (Staphylococcus aureus [2]): 8 mm
